According to US9655904B2, “Substituted benzoazepines as toll-like receptor modulators” (VentiRx Pharmaceuticals, Inc., priority 2009, dated 2017):

Columns and labels:
Format in all cases: cell-based
TLR8 [1] = target: T1, TLR8 (Homo sapiens, UniProt Q9NR97); experiment: PBMC assay for TLR8 (TNFα in supernatants by ELISA); set-up: Peripheral blood mononuclear cells (PBMCs) from human blood were isolated; endogenous in cells; host or cells: human PBMCs; settings: human PBMCs incubated with compound overnight, MC50 = concentration at which 50% of maximum induction is seen
T1 sequence (Q9NR97 27-1041): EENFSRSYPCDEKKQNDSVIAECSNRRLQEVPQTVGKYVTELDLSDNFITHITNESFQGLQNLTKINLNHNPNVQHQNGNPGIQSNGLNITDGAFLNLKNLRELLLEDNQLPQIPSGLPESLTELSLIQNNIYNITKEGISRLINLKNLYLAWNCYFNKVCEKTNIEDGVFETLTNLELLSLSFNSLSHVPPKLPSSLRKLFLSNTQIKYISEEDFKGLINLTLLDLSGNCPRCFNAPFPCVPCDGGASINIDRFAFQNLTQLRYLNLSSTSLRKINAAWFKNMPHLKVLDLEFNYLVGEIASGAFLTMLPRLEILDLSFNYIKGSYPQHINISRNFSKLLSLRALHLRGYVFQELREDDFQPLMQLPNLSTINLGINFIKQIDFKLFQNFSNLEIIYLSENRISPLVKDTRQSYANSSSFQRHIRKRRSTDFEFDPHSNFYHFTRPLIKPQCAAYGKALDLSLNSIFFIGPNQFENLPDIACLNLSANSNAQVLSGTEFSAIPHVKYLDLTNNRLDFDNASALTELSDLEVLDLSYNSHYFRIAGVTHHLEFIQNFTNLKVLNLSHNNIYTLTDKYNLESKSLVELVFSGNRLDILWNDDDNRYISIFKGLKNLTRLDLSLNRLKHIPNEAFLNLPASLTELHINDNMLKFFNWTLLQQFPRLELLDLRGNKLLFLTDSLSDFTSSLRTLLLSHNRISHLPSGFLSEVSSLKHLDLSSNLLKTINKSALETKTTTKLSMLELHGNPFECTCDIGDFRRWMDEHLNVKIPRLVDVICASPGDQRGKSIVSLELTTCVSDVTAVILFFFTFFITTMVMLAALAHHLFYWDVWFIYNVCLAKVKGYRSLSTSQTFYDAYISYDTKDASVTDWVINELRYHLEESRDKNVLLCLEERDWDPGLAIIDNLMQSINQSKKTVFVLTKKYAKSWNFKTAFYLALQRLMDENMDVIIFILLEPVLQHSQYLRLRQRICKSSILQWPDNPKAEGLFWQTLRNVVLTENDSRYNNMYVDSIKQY
Procedure: (§1) Peripheral blood mononuclear cells (PBMCs) from human blood were isolated using BD Vacutainer Cell Preparation Tubes with sodium citrate. Cells were incubated with compound overnight. TLR8 activity was assayed by measuring the amount of TNFα in supernatants by ELISA. TLR7 activity was assayed by measuring the amount of IFNα in supernatants by ELISA (R&D Systems). […] The results of this assay are shown below in Tables 2 and 3.
(§2) MC50 numbers are represented as factors of ten, for example, + indicates an MC50 value of X 10^4, or a value in the tens of thousands of nanomolar (nM range); ++ indicates an MC50 value of X 10^3, or a value in the thousands; +++ indicates an MC50 value of X 10^2, or a value in the hundreds; and ++++ indicates an MC50 value of X 10^1 or 10^0, or a value in the tens or ones.

TLR7 [2] = target: T2, TLR7 (Homo sapiens, UniProt Q9NYK1); experiment: PBMC assay for TLR7 (IFNα in supernatants by ELISA); set-up: Peripheral blood mononuclear cells (PBMCs) from human blood were isolated; endogenous in cells; host or cells: human PBMCs; settings: human PBMCs incubated with compound overnight, MC50 = concentration at which 50% of maximum induction is seen
T2 sequence (Q9NYK1 27-1049): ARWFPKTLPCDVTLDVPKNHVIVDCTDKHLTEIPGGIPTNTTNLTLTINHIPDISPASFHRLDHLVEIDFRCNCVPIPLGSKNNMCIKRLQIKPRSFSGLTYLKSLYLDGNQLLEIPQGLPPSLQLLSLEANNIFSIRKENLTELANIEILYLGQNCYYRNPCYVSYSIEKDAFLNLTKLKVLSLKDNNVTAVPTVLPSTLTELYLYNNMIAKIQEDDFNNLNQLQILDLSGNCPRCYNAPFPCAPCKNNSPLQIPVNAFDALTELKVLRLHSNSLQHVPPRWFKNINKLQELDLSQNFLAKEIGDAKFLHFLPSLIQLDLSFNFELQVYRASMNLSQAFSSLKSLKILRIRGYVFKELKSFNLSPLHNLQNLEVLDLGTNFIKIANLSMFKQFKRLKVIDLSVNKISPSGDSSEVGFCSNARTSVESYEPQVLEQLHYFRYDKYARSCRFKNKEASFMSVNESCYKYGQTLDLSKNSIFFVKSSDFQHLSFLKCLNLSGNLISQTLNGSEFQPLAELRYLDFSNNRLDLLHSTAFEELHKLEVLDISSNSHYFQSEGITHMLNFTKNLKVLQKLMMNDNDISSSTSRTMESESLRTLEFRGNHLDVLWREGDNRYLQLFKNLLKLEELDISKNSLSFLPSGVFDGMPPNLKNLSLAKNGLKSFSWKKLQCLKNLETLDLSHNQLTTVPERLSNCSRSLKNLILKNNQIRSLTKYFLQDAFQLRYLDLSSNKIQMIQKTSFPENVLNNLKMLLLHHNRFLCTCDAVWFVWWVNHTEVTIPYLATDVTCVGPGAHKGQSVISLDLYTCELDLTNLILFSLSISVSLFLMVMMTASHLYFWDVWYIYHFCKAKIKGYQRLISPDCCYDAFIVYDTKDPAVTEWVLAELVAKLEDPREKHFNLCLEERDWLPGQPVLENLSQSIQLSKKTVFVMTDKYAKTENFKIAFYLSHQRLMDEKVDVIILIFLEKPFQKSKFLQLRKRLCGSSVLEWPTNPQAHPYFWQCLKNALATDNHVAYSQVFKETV
Procedure: as §1, §2

TLR8 [3] = target: T1, TLR8; experiment: MC50 values for TLR8 activity (test not specified; procedures of Gorden et al. and Zhu et al.)
From the text: (§3) Activity of the compounds can be assessed according to procedures described in, e.g., Gorden et al., Journal of Immunology 177, pp. 8164-8170 (2006) and Zhu et al., Molecular Immunology, vol. 45 (11), pp. 3238-3242 (2008).
MC50 values for TLR8 activity are, for example, as shown below: […]

TLR7 [4] = target: T2, TLR7; experiment: MC50 values for TLR7 activity (test not specified; procedures of Gorden et al. and Zhu et al.)
From the text: as §3
MC50 values for TLR7 activity are, for example, as shown below: […]

| EC50 (TLR8 [1]) | EC50 (TLR7 [2]) | EC50 (TLR8 [3]) | EC50 (TLR7 [4]) | Compound |
| --- | --- | --- | --- | --- |
| 1 to 100 nM | 10000 to 100000 nM | – | – | CCCN(CCCO)C(=O)C1=Cc2ccc(-c3ccc(CC(=O)OC(C)C)cc3)cc2N=C(N)C1 [Compound 215, Isopropyl 2-(4-((1E,4E)-2-amino-4-((3-hydroxypropyl)(propyl)carbamoyl)-3H-benzo[b]azepin-8-yl)phenyl)acetate] |
| 1 to 100 nM | 1000 to 10000 nM | – | – | CCOC(=O)C1=Cc2ccc(-c3cncc(CO)c3)cc2N=C(N)C1 [Compound 199, (1E,4E)-ethyl 2-amino-8-(5-(hydroxymethyl)pyridin-3-yl)-3H-benzo[b]azepine-4-carboxylate] |
| 100 to 1000 nM | 1000 to 10000 nM | 195 nM | – | CCCN(CCC)C(=O)C1=Cc2ccc(-c3ccc(C4CCOC4=O)cc3)cc2N=C(N)C1 (stereo not shown) [Compound 223, (1E,4E)-2-Amino-8-(4-(2-oxotetrahydrofuran-3-yl)phenyl)-N,N-dipropyl-3H-benzo[b]azepine-4-carboxamide] |
| 100 to 1000 nM | 10000 to 100000 nM | 363 nM | – | CCCN(CCC)C(=O)C1=Cc2ccc(-c3ccc(C(O)CO)cc3)cc2N=C(N)C1 (stereo not shown) [Compound 224, (1E,4E)-2-amino-8-(4-(1,2-dihydroxyethyl)phenyl)-N,N-dipropyl-3H-benzo[b]azepine-4-carboxamide] |
| 1000 to 10000 nM | 1000 to 10000 nM | – | – | CCCN(CCCO)C(=O)C1=Cc2ccc(-c3ccc(CCC(=O)OCC(C)C)cc3)cc2N=C(N)C1 [Compound 219, Isobutyl 3-(4-((1E,4E)-2-amino-4-((3-hydroxypropyl)(propyl)carbamoyl)-3H-benzo[b]azepin-8-yl)phenyl)propanoate] |

Second part, the compound before the results:

| Compound | EC50 (TLR8 [1]) | EC50 (TLR7 [2]) | EC50 (TLR8 [3]) | EC50 (TLR7 [4]) |
| --- | --- | --- | --- | --- |
| CCCN(CCCO)C(=O)C1=Cc2ccc(-c3ccc(CC(=O)OCC)cc3)cc2N=C(N)C1 [Compound 214, Ethyl 2-(4-((1E,4E)-2-amino-4-((3-hydroxypropyl)(propyl)carbamoyl)-3H-benzo[b]azepin-8-yl)phenyl)acetate] | 1 to 100 nM | 1000 to 10000 nM | 54 nM | – |
| CCCN(CCC)C(=O)C1=Cc2ccc(-c3cncc(CO)c3)cc2N=C(N)C1 [Compound 183, (1E,4E)-2-amino-8-(5-(hydroxymethyl)pyridin-3-yl)-N,N-dipropyl-3H-benzo[b]azepine-4-carboxamide] | 1 to 100 nM | 1000 to 10000 nM | 8 nM | – |
| CCCN(CCC)C(=O)C1=Cc2ccc(CCCN3CCOCC3)cc2N=C(N)C1 [Compound 184, (1E,4E)-2-amino-8-(3-morpholinopropyl)-N,N-dipropyl-3H-benzo[b]azepine-4-carboxamide] | 1 to 100 nM | 1000 to 10000 nM | – | – |
| CCCN(CCC)C(=O)C1=Cc2ccc(-c3ccc(CC(=O)O)cc3)cc2N=C(N)C1 [Compound 191, 2-(4-((1E,4E)-2-Amino-4-(dipropylcarbamoyl)-3H-benzo[b]azepin-8-yl)phenyl)acetic acid] | 1000 to 10000 nM | 10000 to 100000 nM | – | – |
| CCCN(CCC)C(=O)C1=Cc2ccc(-c3ccc(CC(=O)OCC)cc3)cc2N=C(N)C1 [Compound 192, Ethyl 2-(4-((1E,4E)-2-amino-4-(dipropylcarbamoyl)-3H-benzo[b]azepin-8-yl)phenyl)acetate] | 100 to 1000 nM | 10000 to 100000 nM | – | – |
| CCCN(CCCO)C(=O)C1=Cc2ccc(-c3ccc4c(c3)C(=O)OC4)cc2N=C(N)C1 [Compound 222, (1E,4E)-2-Amino-N-(3-hydroxypropyl)-8-((3-oxo-1,3-dihydroisobenzofuran-5-yl)-N-propyl-3H-benzo[b]azepine-4-carboxamide] | 1 to 100 nM | 100 to 1000 nM | 33 nM | 358 nM |
